Data as given in the NIST ThermoML archive (doi:10.1016/j.jct.2016.10.039).
Numbers after ± are expanded uncertainties.

Experiment: mn = molality of the nth substance listed, in mol/kg
Conditions: 298.15 K, 85 kPa, Liquid, Alternating current cell with electrodes

Q: With `O` [water] + CCCCCCCCCCCC[N+](C)(C)C.[Br-] as the molecule, how does the electrical conductivity (m2 = 0) read?
A: The electrical conductivity was 0.00021 ± 1e-05 S/m.

Q: With `O` [water] + CCCCCCCCCCCCn1cc[n+](C)c1.[Br-] as the molecule, how does the electrical conductivity (m2 = 0) read?
A: The electrical conductivity was 0.00024 ± 1e-05 S/m.

Q: What does the source list for `CCCCCCCCCCCCn1cc[n+](C)c1.[Br-]` [1-dodecyl-3-methylimidazolium bromide] + O?
A: electrical conductivity (m1 = 0.00123): 0.0086 ± 0.0007 S/m; electrical conductivity (m1 = 0.00244): 0.0169 ± 0.0014 S/m; electrical conductivity (m1 = 0.00361): 0.0251 ± 0.0021 S/m; electrical conductivity (m1 = 0.00476): 0.0331 ± 0.0028 S/m; electrical conductivity (m1 = 0.00588): 0.0411 ± 0.0034 S/m; electrical conductivity (m1 = 0.00698): 0.0489 ± 0.0041 S/m; electrical conductivity (m1 = 0.00805): 0.0567 ± 0.0049 S/m; electrical conductivity (m1 = 0.00909): 0.0644 ± 0.0049 S/m; electrical conductivity (m1 = 0.01011): 0.0702 ± 0.0039 S/m; electrical conductivity (m1 = 0.01111): 0.0736 ± 0.0031 S/m; electrical conductivity (m1 = 0.01209): 0.0764 ± 0.003 S/m; electrical conductivity (m1 = 0.01304): 0.0788 ± 0.0032 S/m; electrical conductivity (m1 = 0.01398): 0.0814 ± 0.0033 S/m; electrical conductivity (m1 = 0.01489): 0.0836 ± 0.0032 S/m; electrical conductivity (m1 = 0.01579): 0.0856 ± 0.0034 S/m; electrical conductivity (m1 = 0.01667): 0.0877 ± 0.0037 S/m; electrical conductivity (m1 = 0.01753): 0.0898 ± 0.0038 S/m; electrical conductivity (m1 = 0.01837): 0.0918 ± 0.004 S/m; electrical conductivity (m1 = 0.01919): 0.0938 ± 0.0041 S/m; electrical conductivity (m1 = 0.02): 0.0957 ± 0.0043 S/m; electrical conductivity (m1 = 0.02079): 0.0977 ± 0.0047 S/m; electrical conductivity (m1 = 0.02157): 0.0997 ± 0.002 S/m

Q: With `CCCCCCCCCCCC[N+](C)(C)C.[Br-]` [dodecyltrimethylammonium bromide] + O as the molecule, how does the electrical conductivity (m1 = 0.00185) read?
A: Its electrical conductivity is 0.0125 ± 0.001 S/m.

Q: What about the electrical conductivity (m1 = 0.00366) of the same molecule?
A: The electrical conductivity was 0.0246 ± 0.002 S/m.

Q: What about the electrical conductivity (m1 = 0.00542) of the same molecule?
A: Its electrical conductivity is 0.0367 ± 0.0031 S/m.

Q: What about the electrical conductivity (m1 = 0.00714) of the same molecule?
A: Its electrical conductivity is 0.0487 ± 0.0042 S/m.

Q: What about the electrical conductivity (m1 = 0.00882) of the same molecule?
A: The electrical conductivity was 0.0609 ± 0.0053 S/m.

Q: And the electrical conductivity (m1 = 0.01047)?
A: Its electrical conductivity is 0.0731 ± 0.0065 S/m.

Q: And the electrical conductivity (m1 = 0.01207)?
A: The electrical conductivity was 0.0856 ± 0.0077 S/m.

Q: And the electrical conductivity (m1 = 0.01364)?
A: Its electrical conductivity is 0.0976 ± 0.0082 S/m.

Q: What about the electrical conductivity (m1 = 0.01517) of the same molecule?
A: Its electrical conductivity is 0.108 ± 0.0076 S/m.

Q: What about the electrical conductivity (m1 = 0.01667) of the same molecule?
A: Its electrical conductivity is 0.116 ± 0.0061 S/m.

Q: And the electrical conductivity (m1 = 0.01813)?
A: The electrical conductivity was 0.121 ± 0.005 S/m.

Q: And the electrical conductivity (m1 = 0.01957)?
A: Its electrical conductivity is 0.125 ± 0.0049 S/m.

Q: And the electrical conductivity (m1 = 0.02097)?
A: Its electrical conductivity is 0.128 ± 0.005 S/m.

Q: And the electrical conductivity (m1 = 0.02234)?
A: Its electrical conductivity is 0.132 ± 0.0051 S/m.

Q: And the electrical conductivity (m1 = 0.02368)?
A: The electrical conductivity was 0.135 ± 0.0054 S/m.

Q: What about the electrical conductivity (m1 = 0.025) of the same molecule?
A: Its electrical conductivity is 0.138 ± 0.0056 S/m.

Q: What about the electrical conductivity (m1 = 0.02629) of the same molecule?
A: Its electrical conductivity is 0.141 ± 0.006 S/m.

Q: What about the electrical conductivity (m1 = 0.02755) of the same molecule?
A: The electrical conductivity was 0.145 ± 0.0064 S/m.

Q: What about the electrical conductivity (m1 = 0.02879) of the same molecule?
A: Its electrical conductivity is 0.148 ± 0.0066 S/m.

Q: And the electrical conductivity (m1 = 0.03)?
A: Its electrical conductivity is 0.151 ± 0.0068 S/m.

Q: What about the electrical conductivity (m1 = 0.03119) of the same molecule?
A: Its electrical conductivity is 0.154 ± 0.0071 S/m.

Q: What about the electrical conductivity (m1 = 0.03235) of the same molecule?
A: The electrical conductivity was 0.157 ± 0.0073 S/m.

Q: What about the electrical conductivity (m1 = 0.0335) of the same molecule?
A: The electrical conductivity was 0.16 ± 0.0032 S/m.
